Earlier results, collected in patent US20250255845A1, “USE OF INTERLEUKIN (IL)-17A INHIBITOR IN PREPARATION OF MEDICAMENT FOR TREATING INFLAMMATORY DISEASE” (Xiangnan University, priority 2024, published 2025).

Test system: endothelial cells
Settings: CN101947215A; cited from earlier work

| SMILES | proliferation of endothelial cells / angiogenesis |
| --- | --- |
| COc1ccc(-c2cc(=O)c3c(OC)c(OC)c(OC)c(OC)c3o2)cc1OC [nobiletin] | inhibit the proliferation of endothelial cells |
| COc1ccc(-c2cc(=O)c3c(OC)c(OC)c(OC)cc3o2)cc1OC [sinensetin] | inhibit the proliferation of endothelial cells |
